Data published in patent US20260159525A1, “TRICYCLIC HETEROCYCLES” (Merck Patent GmbH, priority 2021, published 2026).

What was measured:
Format in all cases: cell-based
[1] = test system: NCI-H226 cells; test: Viability assay in NCI-H226 (Yap-dependent) cells, CyQUANT; conditions: Homo sapiens, NCI-H226 YAP dependent cell line, 96 hour incubation, group symbols
Protocol: (§1) Viability Assay in NCI-H226 (Yap-Dependent) and SW620 Yap KO (Yap Independent) Cells
(§2) The ability of YAP-TEAD inhibitors to inhibit tumor cell growth was evaluated using two different cell lines: NCI-H226, which is a YAP dependent cell line, and SW620 cells, where YAP and TAZ were knocked out using CRISPR to generate a YAP independent cell line.
(§3) For the assay, cells were treated in duplicates with the test compounds in a 10-point dose, 1:3 dilution steps, with the top concentration starting at 30 μM (final concentration in assay). After a 96 hour incubation at 37° C., 95% rH, and 5% CO2, a cell-permeant DNA-binding dye that stains only healthy cells (CyQUANT®, Promega) was added to the cells, allowing the quantification of cell viability.
(§4) Cell Media: The NCI-H226 cells were cultured in the following media: RPMI 1640, +10% FBS, +1× GlutaMAX, +10 mM HEPES, +0.5% Pen/Strep. The SW620-KO cells were cultured in the following media: DMEM/F-12, +10% FBS, +1× GlutaMAX, +10 mM HEPES, +0.5% Pen/Strep.
(§5) Reagents: The reagents used are listed below:
(§6) Cell culture: The cells were examined using an inverted microscope to check for health, cell density, etc. To dissociate adherent cells, the monolayer of cells was washed once with pre-warmed PBS. After removing the PBS, 3 ml pre-warmed Accutase was added to a F75 flask, dispersed evenly and the flask was allowed to sit in incubator for ˜4-5 minutes.
(§7) When a single cell suspension was obtained, 7 ml of prewarmed growth media was added and resuspended with the cells. The cell suspension was transferred to a sterile 15 ml conical centrifuge tube, and spun for 5 min at 300×g, RT. The supernatant was discarded and the pellet was resuspended in 10 ml of pre-warmed growth media.
(§8) The total cell count was determined, and 20 μl of the desired cell number was added to each well of a 384 well plate using a Multidrop Combi. The plates were then incubated for 24 hours at 37° C., 95% rH, and 5% CO2.
(§9) Compound treatment: 24 hours after seeding, the cells were treated with compounds.
(§10) A 1:333 dilution of compounds, diluted in DMSO, was made to get a final concentration of 0.3% DMSO per well. To transfer the compounds to the assay plate, 120 nl was shot from Labcyte low dead volume plates to the cell plates containing 20 μl media/well with the ECHO 555 liquid handling system. After treatment, the cells were fed with 20 μl fresh pre-warmed assay media using a Multidrop combi.
(§11) The assay plates were then incubated for 96 h at 37° C., 95% rH, and 5% CO2.
(§12) 96 h after treatment 30 μl of CyQuant® reagent was added to the assay plates using a Multidrop combi in the dark. The plates were then incubated for 1 hour at 37° C., 95% rH and 5% CO2. Thereafter, the assay plates were removed from the incubator and allowed to equilibrate to RT for 30 min in the dark without lid. Finally, they were measured using an EnVision microplate reader with a FITC bottom read program.

[2] = test system: YAP-TEAD interaction; test: SK-HEP-1 reporter assay (8x TEAD responsive elements driving NanoLuc luciferase); conditions: Homo sapiens, SK-HEP1, SK-HEP-1 cells, 24 hour incubation
How it was run: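 SK-HEP-1 cells carrying a stably integrated 8× TEAD-element NanoLuc reporter, seeded 24 h before dosing, were treated in duplicate with a 10-point dose series (top 30 μM final, 0.3% DMSO) for 24 h at 37°C, 5% CO2. Luciferase activity read by NanoGlo luminescence; IC50 derived from it.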

[3] = test system: SW620 Yap KO cells; test: Viability assay in SW620 Yap KO (Yap independent) cells, CyQUANT; conditions: Homo sapiens, SW-620, SW620 YAP and TAZ knocked out (YAP independent), 96 hour incubation
Protocol: as §1, §2, §3, §4, §5, §6, §7, §8, §9, §10, §11, §12

[4] = n.d. (x) = not detectable below threshold x
[5] = number, or n.d. (x) = not detectable below threshold x

| SMILES | IC50 [1] [nM] | IC50 ([2]; group symbols) [nM] | IC50 [3, 4] [nM] | IC50 [2, 5] [nM] | IC50 ([3]; group symbols) [nM] |
| --- | --- | --- | --- | --- | --- |
| Cc1nc2c3sc(C(=O)O)cc3n(-c3ccc(C(F)(F)F)cc3)c2s1 [Compound 22, 4-methyl-7-[4-(trifluoromethyl)phenyl]-5,11-dithia-3,7-diazatricyclo[6.3.0.0^2,6]undeca-1(8),2(6),3,9-tetraene-10-carboxylic acid] | 100 to 1000 | 10 to 100 | > 30000 | – | – |
| Cc1nc2c3sc(C(=O)O)cc3n(-c3ccc(OC(F)(F)F)cc3)c2s1 [Compound 25, 4-methyl-7-[4-(trifluoromethoxy)phenyl]-5,11-dithia-3,7-diazatricyclo[6.3.0.0^2,6]undeca-1(8),2(6),3,9-tetraene-10-carboxylic acid] | 100 to 1000 | 10 to 100 | > 30000 | – | – |
| Cn1nc2c3sc(C(=O)O)cc3n(-c3ccc(OC(F)(F)F)cc3)c2n1 [Compound 27, 4-methyl-7-[4-(trifluoromethoxy)phenyl]-11-thia-3,4,5,7-tetraazatricyclo[6.3.0.0^2,6]undeca-1(8),2,5,9-tetraene-10-carboxylic acid] | 100 to 1000 | 10 to 100 | > 30000 | – | – |
| Cn1cc2c3cc(C(=O)NCc4ccncc4)sc3n(-c3ccc(C(F)(F)F)cc3)c2n1 [Compound 31, 4-methyl-N-[(pyridin-4-yl)methyl]-7-[4-(trifluoromethyl)phenyl]-9-thia-4,5,7-triazatricyclo[6.3.0.0^2,6]undeca-1(8),2,5,10-tetraene-10-carboxamide] | 1 to 100 | > 10000 | > 3200 | – | – |
| C[C@H](CO)NC(=O)c1cc2c3cn(C)nc3n(-c3ccc(C(F)(F)F)cc3)c2s1 [Compound 33, N-[(2R)-1-hydroxypropan-2-yl]-4-methyl-7-[4-(trifluoromethyl)phenyl]-9-thia-4,5,7-triazatricyclo[6.3.0.0^2,6]undeca-1(8),2,5,10-tetraene-10-carboxamide] | 1 to 100 | 10 to 100 | > 3200 | – | – |
| Cn1cc2c3cc(C(=O)N[C@@H](CO)c4ccccn4)sc3n(-c3ccc(C(F)(F)F)cc3)c2n1 [Compound 35, N-[(1R)-2-hydroxy-1-(pyridin-2-yl)ethyl]-4-methyl-7-[4-(trifluoromethyl)phenyl]-9-thia-4,5,7-triazatricyclo[6.3.0.0^2,6]undeca-1(8),2,5,10-tetraene-10-carboxamide] | 1 to 100 | 10 to 100 | > 3200 | – | – |
| Cn1cc2c3sc(C(=O)O)cc3n(C[C@H]3C[C@@H](C(F)(F)F)C3)c2n1 [Compound 36, 10-methyl-7-{[(1s,3s)-3-(trifluoromethyl)cyclobutyl]methyl}-3-thia-7,9,10-triazatricyclo[6.3.0.0^2,6]undeca-1(11),2(6),4,8-tetraene-4-carboxylic acid] | 100 to 1000 | 100 to 10000 | > 30000 | – | – |
| Cn1cc2c3sc(C(=O)O)cc3n(C[C@H]3C[C@H](C(F)(F)F)C3)c2n1 [Compound 37, 10-methyl-7-{[(1r,3r)-3-(trifluoromethyl)cyclobutyl]methyl}-3-thia-7,9,10-triazatricyclo[6.3.0.0^2,6]undeca-1(11),2(6),4,8-tetraene-4-carboxylic acid] | 1000 to 10000 | 100 to 10000 | > 30000 | – | – |
| Cn1cc2c3cc(C(=O)O)sc3n(-c3ccc(SC(F)(F)F)cc3)c2n1 [Compound 40, 4-methyl-7-{4-[(trifluoromethyl)sulfanyl]phenyl}-9-thia-4,5,7-triazatricyclo[6.3.0.0^2,6]undeca-1(8),2,5,10-tetraene-10-carboxylic acid] | 1 to 100 | 10 to 100 | > 30000 | – | – |
| C[C@H](O)CNC(=O)c1cc2c3cn(C)nc3n(-c3ccc(C(F)(F)F)cc3)c2s1 [Compound 43, N-[(2S)-2-hydroxypropyl]-4-methyl-7-[4-(trifluoromethyl)phenyl]-9-thia-4,5,7-triazatricyclo[6.3.0.0^2,6]undeca-1(8),2,5,10-tetraene-10-carboxamide] | 1 to 100 | – | > 3000 | > 9500 | – |
| C[C@@H](O)CNC(=O)c1cc2c3cn(C)nc3n(-c3ccc(C(F)(F)F)cc3)c2s1 [Compound 44, N-[(2R)-2-hydroxypropyl]-4-methyl-7-[4-(trifluoromethyl)phenyl]-9-thia-4,5,7-triazatricyclo[6.3.0.0^2,6]undeca-1(8),2,5,10-tetraene-10-carboxamide] | 1 to 100 | – | > 3000 | > 9500 | – |
| Cn1cc2c3cc(C(=O)NCc4cccnc4)sc3n(-c3ccc(C(F)(F)F)cc3)c2n1 [Compound 45, 4-methyl-N-[(pyridin-3-yl)methyl]-7-[4-(trifluoromethyl)phenyl]-9-thia-4,5,7-triazatricyclo[6.3.0.0^2,6]undeca-1(8),2,5,10-tetraene-10-carboxamide] | 1 to 100 | – | – | > 9500 | 1000 to 10000 |
| CCNC(=O)c1cc2c3cn(C)nc3n(-c3ccc(C(F)(F)F)cc3)c2s1 [Compound 46, N-ethyl-4-methyl-7-[4-(trifluoromethyl)phenyl]-9-thia-4,5,7-triazatricyclo[6.3.0.0^2,6]undeca-1(8),2,5,10-tetraene-10-carboxamide] | 1 to 100 | 1 to 10 | > 3000 | – | – |
| CNC(=O)c1cc2c3cn(C)nc3n(-c3ccc(C(F)(F)F)cn3)c2s1 [Compound 47, N,4-dimethyl-7-[5-(trifluoromethyl)pyridin-2-yl]-9-thia-4,5,7-triazatricyclo[6.3.0.0^2,6]undeca-1(8),2,5,10-tetraene-10-carboxamide] | 1 to 100 | 10 to 100 | – | – | 1000 to 10000 |
| C[C@H](CO)NC(=O)c1cc2c3cn(C)nc3n(-c3ccc(C(F)(F)F)cn3)c2s1 [Compound 48, N-[(2R)-1-hydroxypropan-2-yl]-4-methyl-7-[5-(trifluoromethyl)pyridin-2-yl]-9-thia-4,5,7-triazatricyclo[6.3.0.0^2,6]undeca-1(8),2,5,10-tetraene-10-carboxamide] | 1 to 100 | – | – | > 30000 | 10000 to 30000 |
| CNC(=O)c1cc2c3cn(C)nc3n(-c3ccc(OC(F)(F)F)cc3)c2s1 [Compound 49, N,4-dimethyl-7-[4-(trifluoromethoxy)phenyl]-9-thia-4,5,7-triazatricyclo[6.3.0.0^2,6]undeca-1(8),2,5,10-tetraene-10-carboxamide] | 1 to 100 | 10 to 100 | > 3000 | – | – |
| C[C@H](CO)NC(=O)c1cc2c3cn(C)nc3n(-c3ccc(OC(F)(F)F)cc3)c2s1 [Compound 50, N-[(2R)-1-hydroxypropan-2-yl]-4-methyl-7-[4-(trifluoromethoxy)phenyl]-9-thia-4,5,7-triazatricyclo[6.3.0.0^2,6]undeca-1(8),2,5,10-tetraene-10-carboxamide] | 1 to 100 | 100 to 10000 | > 30000 | – | – |
| Cn1cc2c3cc(C(=O)O)sc3n([C@H]3CC[C@H](C(F)(F)F)CC3)c2n1 [Compound 52, 4-methyl-7-[(1r,4r)-4-(trifluoromethyl)cyclohexyl]-9-thia-4,5,7-triazatricyclo[6.3.0.0^2,6]undeca-1(8),2,5,10-tetraene-10-carboxylic acid] | 1 to 100 | 10 to 100 | > 30000 | – | – |
| Cn1cc2c3cc(C(=O)NCCO)sc3n(-c3ccc(C(F)(F)F)cc3)c2n1 [Compound 64, N-(2-hydroxyethyl)-4-methyl-7-[4-(trifluoromethyl)phenyl]-9-thia-4,5,7-triazatricyclo[6.3.0.0^2,6]undeca-1(8),2,5,10-tetraene-10-carboxamide] | 1 to 100 | – | > 3000 | > 950 | – |
